Reference: US8927594B2, “Compounds from soft coral, method of preparation and pharmaceutical uses thereof” (National Sun Yat-Sen University, priority 2010, dated 2015)

Columns and labels:
[1] = Cytotoxicity, MTT colorimetric method, Hep G2; assay type: cell-based; settings: human, Hep G2 cells (hepatocellular carcinoma)
Method: (§1) Cell lines were purchased from the American Type Culture Collection (ATCC). Cytotoxicity assays were performed using the MTT [3-(4,5-dimethylthiazol-2-yl)-2,5-diphenyltetrazolium bromide] colorimetric method.

[2] = Cytotoxicity, MTT colorimetric method, Hep 3B; assay type: cell-based; settings: human, Hep 3B cells (hepatocellular carcinoma)
Method: as §1

[3] = Cytotoxicity, MTT colorimetric method, MDA-MB-231; assay type: cell-based; settings: human, MDA-MB-231 cells (breast carcinoma)
Method: as §1

[4] = Cytotoxicity, MTT colorimetric method, MCF-7; assay type: cell-based; settings: human, MCF-7 cells (breast carcinoma)
Method: as §1

[5] = Cytotoxicity, MTT colorimetric method, A549; assay type: cell-based; settings: human, A549 cells (lung carcinoma)
Method: as §1

[6] = Cytotoxicity, MTT colorimetric method, Ca9-22; assay type: cell-based; settings: human, Ca9-22 cells (gingival carcinoma)
Method: as §1

[7] = tested on: iNOS; assay: iNOS protein expression in LPS-stimulated RAW264.7 macrophage cells, immunoblot analysis; assay type: cell-based, mouse; settings: for levels of iNOS protein relative to control cells stimulated with LPS only: concentration of 10 mM (so in the source), LPS alone = 100%, mean±SEM, n=6; for effect on expression of inducible nitric oxide synthase of macrophage cells stimulated with LPS (in words, summary): concentration not stated; for effect on expression of iNOS protein relative to control cells stimulated with LPS only (in words): FIG. 2
Method: (§2) A mouse macrophage cell line, RAW 264.7, purchased from the American Type Culture Collection (ATCC, No TIB-71) was chosen in the in vitro model. The cells were cultured in DMEM (Dulcbecco/s Modified Eagle medium) containing 10% fetal bovine serum (FBS) and penicillin G (100 U/ml) and streptomycin (100 μg/ml) at 37° C. and 5% CO2. When reaching 80% confluence, the cells were subcultured with trypsin. The cells were subjected to an anti-inflammation assay after subcultured for 36 hours. 3×10^6 RAW264.7 cells were cultured in a 10-cm culture dish and administered with lipopolysaccharide (LPS, 0.01 μg/ml; Sigma L2654). After 16 hours, the cells were collected. In an experiment group, the compound represented by formula 3 was added into the culture dish and followed by LPS before 10 minutes.
(§3) The collected RAW264.7 cells were dissolved with 200 μL of 4° C. lysis buffer (50 mM Tris [pH 7.5], 150 mM NaCl, 1% TritonX-100, 0.1 mM EDTA, 0.1 mM EGTA, 10 μg PMSF, 1 aprotinin, 20 mM NaF, and 0.2 mM Na3VO4). The samples were centrifuged at 25,000 g for 30 minutes at 4° C. for removing the pellet. The supernatant was assayed with Bio-Rad DC protein assay kit (Bio-Rad Laboratories, Hercules, Calif., USA) and the absorbance was read with an ELISA reader (Thermo Electron Corporation, USA) for estimating the protein contents. The calibrated samples with equal volumes were added with a sample buffer (2% SDS, 10% glycerol, 0.1% bromophenol blue, 10% 2-mercaptoethanol, and 50mM Tris) of the same volume. Proteins were separated with 10% SDS-PAGE and transferred to a PVDF membrane ([…], Immobilon-P, Millipore, Bedford, Mass., USA) (1.5 A, 4° C., 2.5 hours). The transferred PVDF membranes were blocked with TTBS (Tris-HCl 20 mM, NaCl 137 mM, pH 7.4 and 0.1% Tween 20) containing 5% skim milk at room temperature for 1 hour and reacted with polyclonal anti-inducible nitric oxide synthase antibody (Transduction Laboratories, Lexington, Ky., USA) or polyclonal anti-cyclooxygenase-2 antibody (Cayman, Ann Arbor, Mich., USA) at room temperature for 3 hours. After washed with TTBS three times, the samples were reacted with HRP-conjugated anti-rabbit IgG antibody (1:2000) at room temperature for 1 hour. After washed with TTBS for three times, an enhanced chemiluminescence detection kit was used for reating with the PVDF membrane and exposed with an X-ray film (Kodak X-OMAT LS, Kodak, Rochester, N.Y., USA) for detecting the protein expression. The relative amount was calculated with Image-Pro plus 4.5 software (Media Cybernetics, Silver Spring, USA). The group added with only LPS was taken as 100%. β-actin (monoclonal antibody, Sigma, St Louis, Mo., USA) was taken as an internal control.

[8] = tested on: COX-2; assay: COX-2 protein expression in LPS-stimulated RAW264.7 macrophage cells, immunoblot analysis; assay type: cell-based, mouse; settings: for effect on expression of cyclooxygenase-2 of macrophage cells stimulated with LPS (in words, summary): concentration not stated; for effect on COX-2 expression with LPS treatment (in words): FIG. 2
Method: as §2, §3

[9] = 10 μM, RAW264.7 cells + LPS, same experimental condition

C=C1CC[C@@H](O)[C@]2(C)C[C@H](OC(C)=O)[C@@H]3[C@@H]([C@@H](C(C)C)CC[C@@]3(C)O)[C@H]12 [formula 16]
IC50 [1]: 12.5 µg/mL
IC50 [2]: 9.6 µg/mL
IC50 [3]: 16 µg/mL
IC50 [4]: 9.9 µg/mL
IC50 [5]: 15.3 µg/mL
IC50 [6]: 13.6 µg/mL

CCCC(=O)O[C@H]1[C@H](C(C)C)[C@@H]2[C@@H]([C@H]3C[C@](C)([S+](C)[O-])CCC[C@@](C)(OC(=O)CCC)[C@@H]2O3)[C@](C)(O)[C@@H]1OC(C)=O (stereo partly shown) [formula 3]
levels of iNOS protein relative to control cells stimulated with LPS only ([7]; RAW264.7 cells + LPS): 17.8±4.7%
effect on expression of inducible nitric oxide synthase of macrophage cells stimulated with LPS (in words, summary) [7]: significantly lowered

C=C1C[C@H]2O[C@H]([C@@H]3[C@@H](C(C)C)[C@H](OC(=O)CC[S+](C)[O-])[C@@H](OC(C)=O)[C@@](C)(O)[C@@H]32)[C@](C)(OC(=O)CCC)CC[C@@H]1O (stereo partly shown) [formula 4]
levels of iNOS protein relative to control cells stimulated with LPS only ([7]; RAW264.7 cells + LPS): 11.3±1.5%
effect on expression of inducible nitric oxide synthase of macrophage cells stimulated with LPS (in words, summary) [7]: significantly lowered
COX-2 expression relative to control cells stimulated with LPS only ([8]; concentration of 10 mM (so in the source), RAW264.7 cells + LPS, LPS alone = 100%, mean±SEM, n=6): 7.2±2.5%
effect on expression of cyclooxygenase-2 of macrophage cells stimulated with LPS (in words, summary) [8]: significantly lowered

O=C(/C=C/c1ccc(O)c(O)c1)OCCc1ccccc1 [CAPE, caffeic acid phenylethyl ester, reference compound]
level of iNOS, relative intensity (LPS alone = 100%) [7, 9]: 2.5±3.7%
level of COX-2, relative intensity (LPS alone = 100%) [8, 9]: 67.2±13.4%

C/C1=C/[C@@H]2[C@@H](C(C)C)CC[C@@](C)(O)[C@@H]2CC/C(C)=C/CC1 [formula 14]
effect on expression of iNOS protein relative to control cells stimulated with LPS only (in words) ([7]; 10 μM, RAW264.7 cells + LPS): significantly reduce
effect on expression of inducible nitric oxide synthase of macrophage cells stimulated with LPS (in words, summary) [7]: significantly reduce
effect on COX-2 expression with LPS treatment (in words) ([8]; 10 μM, RAW264.7 cells + LPS): effectively reduce
effect on expression of cyclooxygenase-2 of macrophage cells stimulated with LPS (in words, summary) [8]: effectively reduce

CCCC(=O)O[C@]1(C)CC[C@H](OC(C)=O)[C@@](C)(O)C[C@H]2O[C@@H]1[C@@H]1[C@@H](C(C)C)[C@H](OC(C)=O)[C@@H](OC(C)=O)[C@@](C)(O)[C@@H]12 [formula 11]
effect on expression of iNOS protein relative to control cells stimulated with LPS only (in words) ([7]; 10 μM, RAW264.7 cells + LPS): enhance the expression
effect on COX-2 expression with LPS treatment (in words) ([8]; 10 μM, RAW264.7 cells + LPS): enhance the expression

CCCC(=O)O[C@]1(C)CCC[C@@](C)([S+](C)[O-])C[C@H]2O[C@@H]1[C@H]1[C@@H]2[C@](C)(OC(C)=O)CC[C@@H]1C(C)C (stereo partly shown) [formula 2]
levels of iNOS protein relative to control cells stimulated with LPS only ([7]; RAW264.7 cells + LPS): 8.8±1.0%
effect on expression of inducible nitric oxide synthase of macrophage cells stimulated with LPS (in words, summary) [7]: significantly lowered
